Measurements taken from patent US12528777B2, “Quinazolinones derivatives for treatment of non-alcoholic fatty liver disease, preparation and use thereof” (Council of Scientific and Industrial Research, priority 2020, dated 2026).
“Also recorded” adds a separate entry of the source.

Key:
Type in all cases: cell-based
ATGL [1] = experiment: Reversal of ATGL decrease in COP1 overexpressing HepG2 cells; details: myc-DDK-COP1, 5 μM, 24 hours
Method: COP1 is an E3 ubiquitin ligase with ATGL as one of its targets for ubiquitination and subsequent proteasomal degradation by 26S proteasome. Therefore, it is only legit for ATGL levels to decrease upon COP1 overexpression. To this end, HepG2 cells were transfected with 500 ng of myc-DDK-COP1 plasmid using Lipofectamine 2000 and treated with 5 μM of the compounds 9 and 10 for 24 hours. 48 hours post transfection, cells were harvested and western blot was carried out.

ATGL [2] = experiment: Western blot of ATGL level in HepG2 cells; set-up: key to Increase in ATGL level: + = slight or in insignificant; ++ = Moderate; +++ and ++++ = active; +++ and ++++ = active; +++++ = very active; details: HepG2 cells, western blot, score
Outline: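 HepG2 cells were treated with compound 24 h (10 μM screen; 50 nM–5 μM dose series) and lysed. 30 μg protein was western blotted for ATGL, with actin as loading reference. ATGL increase was expressed as percent of the 1.6-fold siCOP1 maximum and plotted against log concentration for EC50.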

HepG2 cells = experiment: Confocal microscopy: lipid droplets in oleate induced HepG2 cells; set-up: key to Reduction in Lipid Droplets: + = slight or in insignificant; ++ = Moderate; +++ and ++++ = active; +++ and ++++ = active; +++++ = very active
Outline: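 HepG2 cells were loaded with 250 μM oleate and given compound in DMSO (10 μM screen; 10 nM–5 μM dose series) for 24 h; BSA as negative control. Lipid droplets stained with BODIPY/Hoechst, imaged confocally; mean droplets per cell counted over ~20 cells versus oleate-only cells.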

ATGL [3] = experiment: Immunoprecipitation assay of ATGL ubiquitination in myc-ATGL HepG2 cells; details: 5 μM, 24 hours, MG-132, poly ubiquitin smear
Method: To this end, an immunoprecipitation assay was performed wherein HepG2 cells overexpressing myc-ATGL were transfected with HA-Ubiquitin and treated with 5 μM of the compounds 9, 10, 107, 215, 219 and 238. MG-132, a proteasomal inhibitor, was added 4 hours before harvesting the cells. Immune complexes were pulled down with anti-myc antibody and immunoblot was done using anti-HA antibody. The resultant smears on the blot reflect the ubiquitination status of ATGL.
For checking the change in the ubiquitination status of ATGL on compound treatment, Myc-ATGL expressing HepG2 cells (ATGL overexpressing cell line) was transfected with 2 μg of a plasmid harboring the HA tagged ubiquitin gene using Lipofectamine 2000 reagent (Invitrogen) in OptiMEM media (HiMedia). Fresh DMEM complete media was added after 8-10 hours of transfection. After roughly 24 hours of transfection, 5 μM of the compounds 9, 10 and 107 was added and cells were harvested post 24 hours of treatment. 4 hours prior to cell harvesting, 10 μM of proteasomal inhibitor MG132 (Calbiochem, Merck Millipore) was added to the cells. Proteins were isolated from the cells and protein concentration was estimated as described previously. 30 μl of PureProteome Protein A/G Mix Magnetic Beads (Merck Millipore) was taken in a 1.5 ml microcentrifuge tube, placed in a Magna Rack (Merck Millipore) and allowed to adhere to the side of the tube. 200 μg of protein was used for immunoprecipitation reaction in a reaction volume of 1 ml. 2 μl of anti-Myc primary antibody (Cell Signaling Technology) was added and the tube was incubated overnight at 4° C. in a rotary shaker. The next day, the tube was placed back in the Magna Rack and the beads were allowed to attach to the tube. To remove non-specific and unattached reactants, 1×PBS and 0.1% Triton-X was used for washing. 2× loading dye and Lysis Buffer was added and heated at 95° C. for 10 minutes to allow the immune complex to dislodge from the magnetic beads. Western Blot was performed subsequently as described before with anti-HA primary antibody for immunoblotting (Cell Signaling Technology). The activity trends of the synthesized compounds are disclosed in Table-5.

COP1 = COP1 (Homo sapiens, UniProt Q8NHY2); experiment: Immunoprecipitation assay of COP1 autoubiquitination in HepG2 cells; details: 5 μM, 24 hours, MG-132
Method: COP1 is capable of auto ubiquitinating its own self and getting degraded via the proteasomal pathway. To probe into this, HepG2 cells were co-transfected with HA tagged Ubiquitin and myc-flag tagged COP1. The transfected cells were treated with 5 μM of compounds 9, 10, 107 and 238 for 24 hours. MG-132, a proteasomal inhibitor, was added 4 hours before harvesting the cells. Immune complexes were pulled down with anti-myc antibody and immunoblot was done using anti-HA antibody. […] Thus, the compounds of the present disclosure could be potent therapeutic targets by being able to block the proteasomal degradation of ATGL which would then be able to carry out its lipolytic action and reverse the symptoms of steatosis.
For checking the autoubiquitination status of COP1, HepG2 cells were cotransfected with 2 μg each of Myc-DDK-COP1 and HA-Ub plasmids using Lipofectamine 2000 reagent (Invitrogen) in OptiMEM media (HiMedia). The rest of the procedure is similar to that done for Myc-ATGL.

COP1, sequence (Q8NHY2 whole entry): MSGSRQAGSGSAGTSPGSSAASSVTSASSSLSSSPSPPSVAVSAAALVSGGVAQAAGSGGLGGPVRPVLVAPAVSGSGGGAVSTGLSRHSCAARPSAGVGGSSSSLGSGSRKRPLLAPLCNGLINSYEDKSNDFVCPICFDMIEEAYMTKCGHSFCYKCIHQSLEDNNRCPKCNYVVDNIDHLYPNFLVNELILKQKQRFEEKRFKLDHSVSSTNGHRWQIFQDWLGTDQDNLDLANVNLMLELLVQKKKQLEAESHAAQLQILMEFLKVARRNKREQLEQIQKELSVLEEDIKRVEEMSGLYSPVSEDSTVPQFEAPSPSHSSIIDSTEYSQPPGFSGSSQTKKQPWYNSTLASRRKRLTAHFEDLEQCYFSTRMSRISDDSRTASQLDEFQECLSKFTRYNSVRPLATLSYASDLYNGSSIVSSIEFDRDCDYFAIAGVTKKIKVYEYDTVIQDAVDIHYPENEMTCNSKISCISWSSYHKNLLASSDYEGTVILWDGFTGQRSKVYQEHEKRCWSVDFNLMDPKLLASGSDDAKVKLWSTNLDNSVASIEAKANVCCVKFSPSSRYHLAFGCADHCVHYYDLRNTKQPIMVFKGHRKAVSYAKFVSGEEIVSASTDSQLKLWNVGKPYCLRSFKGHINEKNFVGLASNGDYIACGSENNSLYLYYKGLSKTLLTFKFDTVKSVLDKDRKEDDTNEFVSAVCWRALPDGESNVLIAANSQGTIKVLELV

## COCCn1cnc2ccc(NC(=O)Nc3ccc(C(C)=O)cc3)cc2c1=O [Compound 10, 1-(4-acetylphenyl)-3-(3-(2-methoxyethyl)-4-oxo-3,4-dihydroquinazolin-6-yl)urea]
ATGL [1]
  Restoration of ATGL level upon COP1 overexpression: could restore the reduced ATGL level; also recorded: could restore ATGL to its normal level
ATGL [2]
  Increase in ATGL level: ++++
HepG2 cells; HepG2 cells, 250 μM oleate induction
  Number of lipid droplets: decrease in the number of lipid droplets
HepG2 cells; oleate induced HepG2 cells, score
  Reduction in Lipid Droplets: ++++
ATGL [3]
  ATGL ubiquitination in HepG2 cells: reduction, however, could not be seen
COP1
  COP1 autoubiquitination in HepG2 cells: markedly reduce COP1's auto ubiquitination property
